“And” between values parts separate entries of the source, which are not always exact repeats. Identical values can stand only once.
Assays:
[1] = tested on: carbachol (1 _M)-precontracted guinea pig trachea; assay: Isolated tracheal preparation, measurement of tension
Protocol: Isolated Tracheal preparation and Measurement of Tension: Guinea pigs (350-450 g) were anesthetized with pentobarbital (70 mg/kg) i.p. and killed by a sharp blow on the neck, followed by cervical dislocation. The trachea was excised, cleaned of adhering fat and connective tissue, cut transversely into four to five rings, and then opened by cutting longitudinally through the cartilage rings diametrically opposite the tracheal smooth muscle (Hwang T L, Wu C C, and Teng C M (1999) YC-1 potentiates nitric oxide-induced relaxation in guinea-pig trachea. Br J Pharmacol 128:577-584). Then trachea rings were suspended in a 10-ml organ bath containing Krebs' solution (118 mM NaCl, 25 mM NaHCO3, 4.7 mM KCl, 1.2 mM KH2PO4, 1.2 mM MgSO4, 11 mM glucose, and 2.5 mM CaCl2, pH 7.3-7.4) maintained at 37_and aerated with 95% O2 and 5% CO2. Each tracheal tissue sample was subjected to 2 g of initial basal tension. All experiments were carried out in the presence of indomethacin (3 _M) and propranolol (1 _M) to prevent the formation of prostanoids and to inhibit _-adrenergic responses, respectively. Isometric tension was recorded with a force displacement transducer (model FT03; Grass Instruments, Quincy, M A). Before the start of measurements, all preparations were allowed to equilibrate with frequent washing for 1 h. They were first contracted with carbachol (1 _M) to determine the contractility of preparations. This was also done at the end of each experiment. The preparations were then washed and allowed to equilibrate with Krebs' solution for 50 min before being contracted a second time with carbachol (1 _M). When stable constriction to carbachol was reached, concentration responses of KMUP-3 (10, 30, and 100 _M) were obtained. Data were expressed as percentages of the maximum contractile response to carbachol (1 _M).
In experiments to examine the role of epithelium in tracheal relaxation, the epithelial cells were removed mechanically by rubbing the internal surface of trachea with a fine silver wire, and the removal of the epithelial layer was confirmed by histological examination as previously described (Wu et al., 2004).
To examine the possible mechanism of tracheal relaxant effects of KMUP-3, the tracheal strips were pretreated with a K^+ channel blocker, tetraethylammonium (TEA; 10 mM); a KATP channel blocker, glibenclamide (1-M); voltage-dependent K^+ channel blocker, 4-aminopyridine (4-AP, 100 _M); Ca^2+-dependent K^+ channel blockers, apamin (1 _M) and charybdotoxin (ChTX; 0.1 _M); a sGC inhibitor, 1H-[1,2,4]oxadiazolo[4,3-a]quinoxalin-1-one (ODQ; 1 _M); an NOS inhibitor, N—nitro-L-arginine methyl ester (L-NAME; 100 _M); and an adenylate cyclase (AC) inhibitor, SQ 22536 (100 _M) for 30 min prior to the addition of KMUP-3 (10, 30, and 100 _M). In the other experiments, TSMs were precontracted with 60 mM KCl to examine the relaxation achieved by KMUP-3. The KCl solution was prepared by substituting NaCl with KCl (60 mM) in an equimolar amount.

[2] = tested on: guinea pig tracheal smooth muscle cells; assay: Measurement of cGMP in TSMCs; assay type: cell-based; conditions: for GMP level: basal 1.18±0.06
Protocol: Cell Culture of Tracheal Smooth Muscle: Guinea pigs (350-450 g) were injected i.p. with a lethal dose of pentobarbital. The tracheas were excised and cut longitudinally through the cartilage. Using a dissecting microscope, TSM strips were dissected from the surrounding parentchyma. The epithelium was removed from the luminal surface, and bands of TSM were gently separated from the underlying connective tissue. Then TSM strips were chopped into small sections (1 mm^3) and incubated in Hanks' balanced salt solution (138 mM NaCl, 4 mM NaHCO3, 5 mM KCl, 0.3 mM KH2PO4, 0.3 mM Na2HPO4, and 1.0 mM glucose) with 0.05% elastase type IV and 0.2% collagenase type IV (Invitrogen, Carlsbad, Calif.) for 30 min at 37_ with gentle shaking. The solution of dissociated smooth muscle cells was centrifuged (6 min at 500 g), and the pellet was resuspended in 1:1 Dulbecco's modified Eagle's medium/Ham's F-12 medium supplemented with 10% fetal bovine serum, 0.244% NaHCO3, and 1% penicillin/streptomycin. Cells were cultured in 25-cm^2 flasks at 37_ in humidified air containing 5% CO2. Confluent cells were detached with 0.25% trypsin-0.02% EDTA at 37_and then subcultured to establish secondary cultures. Cultures were maintained for no more than four passages. They were identified as smooth muscle cells by the typical hill-and-valley appearance, and cellular homogeneity was further confirmed by the presence of smooth muscle specific _-myosin and _-actin immunoreactivity. Indirect immunofluorescence staining for a variety of antigens was carried out by first plating the cells on chamber slides, fixing the cells in 3.7% formaldehyde-phosphate-buffered saline for 10 min, and permeabilizing the cells with phosphate-buffered saline and 0.1% Triton X-100. Cells were then stained with either a mouse monoclonal antibody directed against the amino-terminal 10 amino acids of _-smooth muscle actin or _-myosin (Roche Diagnostics, Indianapolis, Ind.). All cells were stained with fluorescein-labeled goat anti-mouse IgG antibody (Roche Diagnostics).
Measurement of cAMP and cGMP: Intracellular concentrations of cAMP and cGMP in TSMCs were measured as in our previous reports (Wu B N, Lin R J, Lin C Y, Shen K P, Chiang L C, and Chen I J (2001) A xanthine-based KMUP-1 with cyclic GMP enhancing and K^+ channels opening activities in rat aortic smooth muscle. Br J Pharmacol 134:265-274; Lin R J, Wu B N, Lo Y C, Shen K P, Lin Y T, Huang C H, and Chen I J (2002) KMUP-1 relaxes rabbit corpus cavernosum smooth muscle in vitro and in vivo: involvement of cyclic GMP and K(+) channels, Br J Pharmacol 135:1159-1166). In brief, cells were finally grown in 24-well plates (10^5 cells/well). At confluence, monolayer cells were washed with phosphate-buffered saline and then incubated with KMUP-3 (0.01-100 _M) for 20 min at 37_ in medium. […] The reaction was terminated by replacement of medium with 1 ml of ice-cold 1 N hydrochloric acid. Cells suspensions were sonicated and then centrifuged at 2500 g for 15 min at 4_. Then, the supernatants were lyophilized and the cAMP and cGMP of each sample were determined using commercially available radioimmunoassay kits (GE Healthcare, Little Chalfont, Buckinghamshire, UK).

Cn1c(=O)c2c(ncn2CCN2CCN(c3ccc([N+](=O)[O-])cc3)CC2)n(C)c1=O [KMUP-3]
relaxation response after epithelium denudation (FIG. 3(A)) ([1]; 10, 30, 100 _M, EP− versus EP+): significant decrease in the relaxation response
relaxation, concentration response ([1]; 10, 30, 100 _M, carbachol- or high-K+-contracted EP+ TSM, also epithelium-denuded): concentration-dependent relaxation
relaxation of TSM strips ([1]; 100 _M, carbachol (1 _M)-precontracted): up to 130%
relaxation in epithelium-intact trachea (FIG. 3(B)) ([1]; 100 _M, carbachol (1 _M)-precontracted, EP+): cause relaxations
relaxation in presence of ODQ (1 _M), L-NAME (100 _M) or SQ 22536 (100 _M) (FIG. 5) ([1]; 30 min pretreatment, EP+ TSM): attenuated
relaxation against carbachol-induced contractions in presence of K+ channel blockers (FIGS. 4(A)-4(E)) ([1]; pretreatment with TEA, glibenclamide, 4-AP, apamin or ChTX, EP+): inhibited
GMP level ([2]; 0.01 _M, 20 min): 1.62±0.05 pmol/mg protein
GMP level ([2]; 0.1 _M, 20 min): 1.73±0.01 pmol/mg protein
GMP level ([2]; 1 _M, 20 min): 1.75±0.04 pmol/mg protein
GMP level ([2]; 10 _M, 20 min): 1.86±0.05 pmol/mg protein
Cyclic GMP level in presence of L-NAME ([2]; 100 _M compound plus L-NAME (100 _M) pretreatment): 1.28 ± 0.01 pmol/mg protein
Cyclic GMP level in presence of ODQ ([2]; 100 _M compound plus ODQ (10 _M) pretreatment): 1.35 ± 0.04 pmol/mg protein
amounts of cGMP versus vehicle (FIG. 6) ([2]; 100 _M, 20 min): significantly enhances
Cyclic GMP level ([2]; 100 _M, 20 min, basal/vehicle 1.18±0.06): 1.98±0.09 pmol/mg protein and 1.98 ± 0.08 pmol/mg protein

Source: patent US20080051413A1, “Nitrophenylpiperazine derivative of xanthine which relaxes tracheal airway and increases respiratory performance” (KAOHSIUNG MEDICAL UNIVERSITY, priority 2006, published 2008)
